PubChem BioAssay (NCI)
Where “and” joins values, the source holds several entries; their conditions need not be identical. Identical values can stand only once.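 Where inhibition never reached the appropriate level, the endpoint shown equals the highest concentration tested. Otherwise, values were interpolated linearly from a five-concentration, 48-hour dose response in 96-well plates. GI50: concentration for 50% inhibition of growth. The concentration for full growth arrest is given as TGI.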

Columns and labels:
Assay in all cases: inhibition of tumour cell growth, NCI panel, 48 h
KM12 colon = tested on: KM12 colon
SN12C renal = tested on: SN12C renal
SK-MEL-2 melanoma = tested on: SK-MEL-2 melanoma
IGROV1 ovarian = tested on: IGROV1 ovarian
SR leukemia = tested on: SR leukemia
NCI-H522 lung = tested on: NCI-H522 lung
TK-10 renal = tested on: TK-10 renal
OVCAR-5 ovarian = tested on: OVCAR-5 ovarian
RXF 393 renal = tested on: RXF 393 renal
HOP-92 NSCLC = tested on: HOP-92 NSCLC

Structure (SMILES) | TGI (KM12 colon) | TGI (SN12C renal) | TGI (SK-MEL-2 melanoma) | TGI (IGROV1 ovarian) | TGI (SR leukemia) | TGI (NCI-H522 lung) | TGI (TK-10 renal) | TGI (OVCAR-5 ovarian) | TGI (RXF 393 renal) | TGI (HOP-92 NSCLC) | GI50 (KM12 colon) | GI50 (SN12C renal) | GI50 (SK-MEL-2 melanoma) | GI50 (IGROV1 ovarian) | GI50 (SR leukemia) | GI50 (HOP-92 NSCLC) | GI50 (NCI-H522 lung) | GI50 (TK-10 renal) | GI50 (OVCAR-5 ovarian) | GI50 (RXF 393 renal)
CC1CC[P+](c2ccccc2)(c2ccccc2)CC1 | > 100 µM | > 100 µM | > 100 µM | > 100 µM | > 100 µM | > 100 µM | > 100 µM | > 100 µM | > 100 µM |  |  |  |  |  |  |  |  |  |  | 
COC[C@H](C)N=CN1CCc2ccccc2C1(Cc1ccccc1)Cc1ccccc1 | 27.3 µM | 23.8 µM | 23.6 µM | > 100 µM | 42 µM | 26.7 µM | 38.8 µM |  | 32.7 µM | 29.8 µM |  |  |  |  |  |  |  |  |  | 
COC(=O)C(/C(=N\NC(N)=S)C(=O)Nc1ccccc1[N+](=O)[O-])c1cnc2ccccc2n1 (stereo not drawn) | > 100 µM | > 100 µM | > 100 µM | > 100 µM | > 100 µM | > 100 µM | > 100 µM | > 100 µM | > 100 µM | > 100 µM |  |  |  |  |  |  |  |  |  | 
COC(=O)[C@]12CC[C@@H](C)[C@H](C)[C@@H]1C1=CC[C@@H]3[C@@]4(C)C(C=O)=C[C@@](C)(COC(=O)/C=C/c5ccccc5)[C@@H]4[C@H](O)C[C@@]3(C)[C@]1(C)CC2 | 19.4 µM | 26.5 µM | 12.8 µM | 66.4 µM | 6.76 µM | 17.4 µM | 39.3 µM | 13.6 µM | 4.45 µM | 9.1 µM | 3.58 µM | 3.8 µM | 3.21 µM | 4.34 µM | 2.29 µM | 2.19 µM | 4.47 µM | 6.74 µM | 3.08 µM | 1.79 µM
c1ccc2c(NCCCCCCNc3cccc4ccccc34)cccc2c1 | > 100 µM | > 100 µM | > 100 µM | > 100 µM |  | > 100 µM | > 100 µM | > 100 µM |  | > 100 µM |  |  |  |  |  |  |  |  |  | 
CCC[CH2][Pb]([Cl])([CH2]CCC)[CH2]CCC | 0.081 µM | 0.0294 µM | 0.0724 µM | 0.179 µM |  | 0.104 µM | 0.0913 µM | 0.134 µM | 0.0635 µM | 0.196 µM | 0.0326 µM | 0.0152 µM | 0.0229 µM | 0.0603 µM | 0.0671 µM | 0.058 µM | 0.0321 µM | 0.0317 µM | 0.034 µM | 0.0231 µM
CN(C)c1ccc2nc(CC(O)(C(F)(F)F)C(F)(F)F)ccc2c1 | > 10 µM | > 10 µM | > 10 µM | > 10 µM |  | > 10 µM | > 10 µM | > 10 µM | > 10 µM | > 10 µM |  |  |  |  |  |  |  |  |  | 
O=c1cc(-c2ccccc2)[nH]c2cc(Cl)ccc12 | 52.5 µM | 82.3 µM | > 100 µM | > 100 µM |  | 0.358 µM | > 100 µM | > 100 µM | 1.08 µM | 57.5 µM |  |  |  |  |  |  |  |  |  | 
COc1ccc(CCc2cc(OC)c(O)c(OC)c2)cc1 | > 100 µM | > 100 µM | > 100 µM | > 100 µM | > 100 µM | > 100 µM |  | > 100 µM |  | > 100 µM |  |  |  |  |  |  |  |  |  | 
C1C[OH+]CC[OH+]CCNCC[OH+]CC[OH+]CCN1.Cl.[Cl-].[Pt+4] |  | > 100 µM |  | > 100 µM |  | 6.47 µM | > 100 µM |  | 4.13 µM | > 100 µM |  | > 100 µM |  | > 100 µM |  | > 100 µM | 2.27 µM | > 100 µM |  | 1.66 µM
C[Si](C)(C)C(Sc1ccccc1)(Sc1ccccc1)Sc1ccccc1 | > 100 µM | > 100 µM | > 100 µM |  | > 100 µM |  | > 100 µM |  | > 100 µM | 94.1 µM |  |  |  |  |  |  |  |  |  | 
CCN=C(C#N)NCC | > 100 µM | > 100 µM | > 100 µM | > 100 µM | > 100 µM | > 100 µM | > 100 µM | > 100 µM |  | > 100 µM |  |  |  |  |  |  |  |  |  | 
Cc1ccccc1C1CC(c2ccccc2)=NO1 (stereo not drawn) | > 100 µM | > 100 µM | > 100 µM | > 100 µM | > 100 µM | > 100 µM | > 100 µM | > 100 µM |  | > 100 µM |  |  |  |  |  |  |  |  |  | 
COC(=O)/C(=N\NC(N)=O)C(C(=O)C=C(C)C)C(=O)C(=O)Nc1ccc(Cl)c(Cl)c1 (stereo not drawn) | > 100 µM | > 100 µM | > 100 µM | > 100 µM | > 100 µM | > 100 µM | > 100 µM | > 100 µM | > 100 µM |  |  |  |  |  |  |  |  |  |  | 
COc1ccc2nc(NC(=O)C(=O)NNC(=O)c3ccncc3)sc2c1 |  | > 100 µM |  | > 100 µM |  | > 100 µM | > 100 µM |  | > 100 µM | > 100 µM |  |  |  |  |  |  |  |  |  | 
CC(C)C1N2CCCCC2[C@@H]2c3[nH]c4ccccc4c3CCN12 (stereo partly drawn) |  | > 100 µM | > 100 µM | > 100 µM |  |  |  | > 100 µM | > 100 µM | > 100 µM |  |  |  |  |  |  |  |  |  | 
C/C(=N/Nc1nc(C)cc(=O)[nH]1)C(=O)O | > 100 µM | > 100 µM | > 100 µM | > 100 µM | > 100 µM | > 100 µM | > 100 µM | > 100 µM | > 100 µM |  |  |  |  |  |  |  |  |  |  | 
CCOP1(=O)C=C(C)C(=C(Cl)Cl)C(C)=C1 (stereo not drawn) | 5.11 µM | > 100 µM | 56.2 µM | 90.9 µM |  | 7.79 µM and 18.9 µM | 77.2 µM |  | 30.7 µM |  |  |  |  |  |  |  | 5.57 µM |  |  | 
CN1CCN(Cc2cc(NC(=O)c3cccc(C#Cc4cccc5[nH]nc(N)c45)c3)cc(C(F)(F)F)c2)CC1 | 2.67 µM | 3.13 µM | 3.4 µM | 4.07 µM |  | 3.34 µM | 3.38 µM | 2.98 µM | 2.83 µM | 2.63 µM | 1.32 µM | 1.66 µM | 1.72 µM | 2.05 µM |  | 1.24 µM | 1.74 µM | 1.96 µM | 1.5 µM | 1.46 µM
O=C1NC(c2cccc(OCc3ccccc3)c2)Nc2ccccc21 (stereo not drawn) | 73.9 µM | 30.5 µM | 30 µM | 93.7 µM | 0.47 µM | 0.636 µM | > 75.7 µM | > 22.7 µM |  | > 100 µM |  |  |  |  |  |  |  |  |  | 
